pEC50: −log10 of the molar value.
Tests used:
[1] = tested on: IRE1/XBP1s signaling pathway; assay: XBP1-RLuc splicing reporter in HEK293T-REx cells; assay type: cell-based; details: HEK293-T-REx; HEK293T-REx XBP1-RLuc cells, 18 hr; read-out: EC50 of XBP1-RLuc activation
Protocol: FIG. 2A and FIG. 2B. Activation of RLuc luminescence in HEK293T-Rex cells stably expressing XBP1s-RLuc treated with 10 μM IRE1 activators in the presence or absence of IRE1 inhibitor 4 μ8c (32 μM) for 18 hr. Luminescence is shown as % signal relative to Tg treatment (500 nM; 18 hr). Error bars represent standard deviation for n=3 replicates (FIG. 2A), Activation of RLuc luminescence in HEK293T-Rex cells stably expressing XBP1s-RLuc treated with the indicated concentrations of IRE1 activator compounds for 18 hr. Luminescence is shown as % signal relative to Tg treatment (500 nM; 18 hr) Error bars represent standard deviation for n=3 replicates (FIG. 2B).
HEK293T-Rex cells incorporating either the XBP1s-Rluc or ERSE-FLuc reporters were collected by trypsinization and resuspended at a density of 500,000 cells per mL. The assay was started by dispensing 5 μL of cell suspension into each well of white, solid-bottom 1536-well plates using a flying reagent dispenser (FRD) and placed into an online incubator for 3 hr. Cells were then treated with 34 nL/well of either test compounds to give final concentrations of 5.17 μM, DMSO (low control, final concentration 0.68%, 0% activation) or 37 μM of Delta-7 thapsigargin (high control, final concentration 500 nM, 100% activation). Plates were incubated for 18 hr at 37° C., removed from the incubator and equilibrated to room temperature for 10 min. Luciferase activity was detected by addition of 5 μL of ONE-Glo reagent (Promega) to each well. After a 10 min incubation time, light emission was measured with the ViewLux reader (PerkinElmer).
The percent activation of each test compound was calculated as follows: % Activation=100*(Test Compound-Median Low Control)/(Median High Control Median Low Control). Primary screening of the 646,275 compound library at Scripps Florida yielded 10,114 hits for XBP1s Renilla Luciferase activity at ≥13.83% activation by thapsigargin. Compounds that hit in more than 7 screens (promiscuity score) were eliminated, as well as those that elicited HSP70 activation. The top 6,391 remaining compounds (activation≥16.36%) were moved forward to triplicate confirmation screening and HEK TREX CTG cytotoxicity counterscreening. Duplicates were removed from the resulting list, and the top 638 activating compounds (≥15.92%) were moved forward for triplicate titration screening and HEK TREX CTG titration counterscreening.
A HEK293^T-REx cell line that stably expresses a XBP1-Renilla luciferase (XBP1-RLuc) splicing reporter was used to identify compounds that activated the IRE1/XBP1s signaling pathway^37. Activated IRE1selectively splices mRNA encoded by this reporter, resulting in a frame-shift that allows expression of the active Renilla luciferase enzyme^37. […]

[2] = tested on: PERK geneset; assay: RNAseq geneset analysis in HEK293T cells, PERK geneset; assay type: cell-based, human; details: 6 h
Protocol: Cells were lysed and total RNA collected using the RNeasy mini kit, according to manufacturer's instructions (Qiagen). Conventional RNA-seq was conducted via BGI Americas on the BGI Proprietary platform, providing single-end 50 bp reads at 20 million reads per sample. Alignment of sequencing data was done using DNAstar Lasergene SeqManPro to the GRCh37. p 13 human genome reference assembly, and assembly data were imported into ArrayStar 12.2 with QSeq (DNAStar Inc.) to quantify the gene expression levels and normalization to reads per kilobase per million (RPKM). Differential expression analysis and statistical significance calculations between different conditions was assessed using “DESeq” in R, compared to vehicle-treated cells, using a standard negative binomial fit of the RPKM data to generate Fold Change quantifications.
The purpose of this example was to define the ability of the compounds to selectively induce expression of IRE1/XBP1s target genes: for this purpose, RNAseq was performed on HEK293T cells that had been treated with compound No. 198, 474, or 970 for 6 h. As a control, RNAseq was performed on cells that had been treated with the global UPR activator Tg. […] These include the ER stress-responsive transcription factor XBP1 and the ER proteostasis factors SEC24D, […], and HERPUD1^8.
The next step defined the selectivity of the compounds for IRE1/XBP1s signaling relative to other arms of the UPR. […] To overcome this challenge, the expression of individual genes that are included in these genesets were normalized to the expression observed in Tg-treated cells (Tg representing 100% activation of these genes). It was therefore possible to directly compare gene expression without complications arising from differential expression^42.

**Q.** How did the pEC50 [1] turn out when CCOC(CNC(=O)C1CCCN(Cc2nc(-c3ccc(Cl)cc3)oc2C)C1)OCC (stereo not drawn) [Compound 198] was run?
**A.** > 5.52

**Q.** What about the “expression of the PERK geneset” value [2] of the same compound?
**A.** increased expression of the PERK geneset

**Q.** With Cc1ccc(OCCN(C)C(=O)Cn2cc(NC(=O)CCOc3ccccc3)cn2)cc1 [Compound 474] as the compound, how does the pEC50 [1] read?
**A.** > 5.52

**Q.** What about the “expression of the PERK geneset” value [2] of the same compound?
**A.** did not demonstrate this effect

**Q.** With O=C(CN(Cc1ccc(Cl)cc1)S(=O)(=O)c1cccnc1)N1CCc2ccccc21 [Compound 970] as the compound, how does the pEC50 [1] read?
**A.** > 5.52

**Q.** And the “expression of the PERK geneset” value [2]?
**A.** did not demonstrate this effect
